Laboratory results reported in ChEMBL document CHEMBL1201862, “PubChem BioAssay data set” (2004).
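These data come from cells grown in 96-well plates and exposed to compound for 48 hours at five concentrations. Abbreviation: GI50, concentration required for 50% inhibition of growth.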 Calls of active or inactive are those of the source. No stated cut-off is given here; in the data, active = GI50 up to about 1.1 µM and inactive = higher.

How the values were obtained:
Assay in all cases: NCI tumour cell line growth inhibition, 48 h
RXF 393 = system: RXF 393
RPMI-8226 = system: RPMI-8226
U-251 = system: U-251
NCI-H226 = system: NCI-H226
ACHN = system: ACHN
OVCAR-8 = system: OVCAR-8
KM12 = system: KM12
UACC-257 = system: UACC-257
NCI-H522 = system: NCI-H522
UACC-62 = system: UACC-62
HT-29 = system: HT-29
EKVX = system: EKVX
CAKI-1 = system: CAKI-1
IGROV-1 = system: IGROV-1
A498 = system: A498
SNB-75 = system: SNB-75

Measured: GI50

O=C(/C(=C\c1ccccc1)CN1CCOCC1)c1ccc(Br)cc1
inactive: RXF 393 2.51 µM | RPMI-8226 2.43 µM | U-251 2.51 µM | NCI-H226 6.68 µM | ACHN 1.75 µM | OVCAR-8 1.61 µM | KM12 1.87 µM | UACC-257 2.59 µM | NCI-H522 1.28 µM | UACC-62 1.55 µM | HT-29 2.05 µM | EKVX 3.06 µM | CAKI-1 1.88 µM | IGROV-1 4.97 µM | A498 6.12 µM | SNB-75 10.8 µM

CNC(=S)OCCC(C)CCCC(C)C (stereo unspecified)
inactive: RXF 393 16.2 µM | RPMI-8226 10.8 µM | U-251 15.5 µM | ACHN 18.8 µM | OVCAR-8 17.3 µM | KM12 14.4 µM | UACC-257 16.4 µM | UACC-62 15.5 µM | HT-29 17.3 µM | EKVX 17.1 µM | CAKI-1 17.1 µM | IGROV-1 17.3 µM | A498 16.3 µM | SNB-75 20.8 µM

CC(=O)OC1COC(N2CCc3cc([N+](=O)[O-])ccc32)C(OC(C)=O)C1OC(C)=O (stereo unspecified)
inactive: RXF 393 > 100 µM | RPMI-8226 > 100 µM | U-251 > 100 µM | NCI-H226 63.7 µM | ACHN > 100 µM | OVCAR-8 > 100 µM | KM12 > 100 µM | UACC-257 > 100 µM | NCI-H522 > 100 µM | UACC-62 > 100 µM | HT-29 > 100 µM | EKVX > 100 µM | CAKI-1 > 100 µM | IGROV-1 > 100 µM | A498 7.23 µM | SNB-75 > 100 µM

O=C1CCC(=O)N1Sc1ccccc1
inactive: RXF 393 > 100 µM | RPMI-8226 > 100 µM | U-251 > 100 µM | ACHN > 100 µM | OVCAR-8 > 100 µM | KM12 > 100 µM | UACC-257 > 100 µM | NCI-H522 > 100 µM | UACC-62 > 100 µM | EKVX > 100 µM | CAKI-1 > 100 µM | IGROV-1 > 100 µM | A498 > 100 µM | SNB-75 72.9 µM

COC(=O)CCC(NC(=S)N/N=C(\C)c1ccc[nH]1)C(=O)OC (stereo unspecified)
inactive: RXF 393 > 100 µM | U-251 > 100 µM | NCI-H226 > 100 µM | ACHN > 100 µM | OVCAR-8 > 100 µM | KM12 > 100 µM | UACC-257 > 100 µM | NCI-H522 > 100 µM | UACC-62 > 100 µM | HT-29 > 100 µM | EKVX > 100 µM | IGROV-1 > 100 µM | A498 > 100 µM | SNB-75 > 100 µM

O=C1C(c2ccc(Br)cc2)=[N+]([O-])c2ccccc21
inactive: RXF 393 16.9 µM | RPMI-8226 3.88 µM | U-251 14.7 µM | NCI-H226 13.1 µM | ACHN 13.4 µM | OVCAR-8 10.2 µM | KM12 14.8 µM | UACC-257 11.3 µM | NCI-H522 2.45 µM | UACC-62 16 µM | HT-29 21.6 µM | EKVX 16 µM | IGROV-1 17.4 µM | A498 22.1 µM | SNB-75 16.6 µM

COC(=O)c1ccc(N/C=C(/C#N)c2ccsc2)cc1
inactive: RXF 393 11.4 µM | RPMI-8226 20.7 µM | U-251 6.92 µM | NCI-H226 20.7 µM | ACHN 5.97 µM | OVCAR-8 6.61 µM | KM12 12.9 µM | UACC-257 32.6 µM | UACC-62 20.5 µM | HT-29 11.1 µM | EKVX 15.9 µM | CAKI-1 15.1 µM | IGROV-1 27.1 µM | A498 4.06 µM | SNB-75 6.68 µM

COc1ccc(CCN2CCC(C#N)(c3ccc(OC)c(OC)c3)CC2)cc1OC
inactive: RXF 393 49.1 µM | RPMI-8226 > 100 µM | U-251 > 100 µM | NCI-H226 > 100 µM | ACHN > 100 µM | OVCAR-8 > 100 µM | KM12 > 100 µM | UACC-257 > 100 µM | NCI-H522 84.9 µM | UACC-62 > 100 µM | HT-29 > 100 µM | EKVX > 100 µM | IGROV-1 > 100 µM | SNB-75 30.5 µM

CC(=O)OC1(C#N)CC2OC1C1C2N1C(=O)c1ccccc1 (stereo unspecified)
inactive: RXF 393 > 100 µM | RPMI-8226 > 100 µM | U-251 > 100 µM | NCI-H226 > 100 µM | ACHN > 100 µM | OVCAR-8 > 100 µM | NCI-H522 > 100 µM | UACC-62 > 100 µM | EKVX > 100 µM | CAKI-1 > 100 µM | IGROV-1 > 100 µM | A498 > 100 µM | SNB-75 > 100 µM

NC(=S)N1N=C2c3ccccc3CC[C@H]2[C@@H]1c1ccc(Cl)cc1
inactive: RXF 393 30 µM | RPMI-8226 18.6 µM | U-251 37.8 µM | NCI-H226 16.7 µM | ACHN 24.4 µM | OVCAR-8 31.6 µM | KM12 29 µM | UACC-257 25.2 µM | NCI-H522 9.18 µM | UACC-62 27.9 µM | HT-29 24.9 µM | EKVX 37.8 µM | IGROV-1 19.4 µM | A498 35.5 µM

N#CC(C(=O)CCC(=O)Nc1cccc(Cl)c1)c1ccccc1 (stereo unspecified)
inactive: RXF 393 > 100 µM | RPMI-8226 > 100 µM | U-251 > 100 µM | NCI-H226 > 100 µM | ACHN > 100 µM | OVCAR-8 > 100 µM | KM12 > 100 µM | UACC-257 > 100 µM | NCI-H522 > 100 µM | UACC-62 > 100 µM | HT-29 > 100 µM | EKVX > 100 µM | IGROV-1 > 100 µM | A498 > 100 µM | SNB-75 > 100 µM

CC(C(=O)N1C(=O)N(C(=O)C(C)C(O)c2ccccc2)C2CCCCC21)C(O)c1ccccc1 (stereo unspecified)
inactive: RXF 393 66.1 µM | RPMI-8226 34 µM | U-251 > 100 µM | ACHN 58.9 µM | OVCAR-8 88.3 µM | KM12 37.1 µM | NCI-H522 46.8 µM | UACC-62 > 100 µM | HT-29 > 10 µM | EKVX 81.3 µM | IGROV-1 > 100 µM

CCCCN[C@H]1C2C3CC4C5CC(C42)C1(C)C53 (stereo partly specified)
inactive: RXF 393 > 100 µM | RPMI-8226 > 100 µM | U-251 > 100 µM | NCI-H226 > 100 µM | ACHN > 100 µM | KM12 > 100 µM | UACC-257 > 100 µM | NCI-H522 > 100 µM | UACC-62 > 100 µM | HT-29 > 100 µM | EKVX > 100 µM | CAKI-1 > 100 µM | IGROV-1 > 100 µM | A498 > 100 µM | SNB-75 > 100 µM

O=C1NC(=S)NC(=O)C1=Cc1cc2c(cc1[N+](=O)[O-])OCO2
inactive: RXF 393 > 100 µM | RPMI-8226 42.2 µM | U-251 > 100 µM | NCI-H226 > 100 µM | ACHN > 100 µM | OVCAR-8 73.3 µM | KM12 40.6 µM | UACC-257 > 100 µM | NCI-H522 > 100 µM | UACC-62 > 100 µM | EKVX > 100 µM | CAKI-1 94.4 µM | IGROV-1 > 100 µM | A498 > 100 µM | SNB-75 > 100 µM

Cc1cc(NCCCCCCCNc2cc(C)nc3cc(N)ccc23)c2ccc(N)cc2n1
inactive: RXF 393 79.3 µM | RPMI-8226 14.8 µM | U-251 28.1 µM | NCI-H226 20.4 µM | ACHN > 100 µM | OVCAR-8 36.3 µM | KM12 20.7 µM | UACC-257 47.6 µM | NCI-H522 13.7 µM | UACC-62 35.5 µM | HT-29 34 µM | EKVX 55.6 µM | CAKI-1 > 100 µM | A498 43.2 µM | SNB-75 25.2 µM

O=c1nc2occc2cn1C1CC(O)C(CO)O1 (stereo unspecified)
inactive: RXF 393 > 100 µM | RPMI-8226 > 100 µM | U-251 > 100 µM | NCI-H226 > 100 µM | ACHN > 100 µM | OVCAR-8 > 100 µM | KM12 > 100 µM | UACC-257 > 100 µM | UACC-62 > 100 µM | HT-29 > 100 µM | EKVX > 100 µM | CAKI-1 > 100 µM | IGROV-1 > 100 µM | A498 > 100 µM | SNB-75 > 100 µM

CC(C)c1cccc(C(C)C)c1NC(=O)C(=O)CC(=O)CC(c1ccccc1)c1c(O)oc2ccccc2c1=O (stereo unspecified)
inactive: RXF 393 > 100 µM | RPMI-8226 > 100 µM | ACHN > 100 µM | OVCAR-8 > 100 µM | KM12 > 100 µM | UACC-257 > 100 µM | NCI-H522 > 100 µM | UACC-62 > 100 µM | HT-29 > 100 µM | EKVX > 100 µM | CAKI-1 > 100 µM | IGROV-1 > 100 µM | A498 > 100 µM

Cc1cc(C)c(N)c(C)c1N
inactive: RXF 393 > 100 µM | RPMI-8226 > 100 µM | U-251 > 100 µM | ACHN > 100 µM | OVCAR-8 > 100 µM | KM12 > 100 µM | UACC-257 > 100 µM | NCI-H522 > 100 µM | UACC-62 > 100 µM | EKVX > 100 µM | IGROV-1 > 100 µM | A498 > 100 µM

COc1ccc(C2=C(Cl)c3cc(OC)c(OC)cc3C2OC)cc1OC (stereo unspecified)
inactive: RXF 393 > 100 µM | RPMI-8226 23.8 µM | NCI-H226 > 100 µM | ACHN > 100 µM | OVCAR-8 > 100 µM | KM12 > 100 µM | UACC-257 > 100 µM | NCI-H522 3.25 µM | UACC-62 > 100 µM | HT-29 > 100 µM | EKVX > 100 µM | CAKI-1 > 100 µM | IGROV-1 > 100 µM | A498 > 100 µM | SNB-75 > 100 µM
